Tests used:
[1] = tested on: CRABP-2 expression of pig skin epidermis; test: CRABP-2 assay; format: cell-based; details: topical dose 5 μl in ethanol vehicle, four days, control as 100%
Excerpt: Within the cells, retinol and retinoic acid are bound to specific cellular binding proteins. Two of the major proteins are CRABP-1 and CRABP-2 (Roos et al., Pharmacological reviews: 50, 315-333, 1998). These proteins regulate the intracellular concentration of retinoids by acting as either storage or shuttle proteins in retinoid metabolism. The levels of CRABP protein are regulated by the amount of retinoic acid within the cells. Higher cellular levels of retinoids increase the expression of CRABP-2. Therefore, the amount of this protein in the cells is a measure of the retinoid activity of the cells. Skin cells contain high levels of CRABP-2 both in the epidermis and the dermis. CRABP-2 response to retinoid administration in is used as a reproducible measure of retinoid bioactivity that predict human skin responses (Elder et al., J. Invest. Dermatol., 106: 517-521, 1996). Increase in CRABP-2 is also associated with increased epidermal differentiation, and dermal retinoid action. Therefore, in these studies we used CRABP-2 expression of pig skin epidermis as a measure of retinoid activity leading to increased epidermal differentiation (skin conditioning and dry skin benefit) and dermal collagen and extracellular matrix synthesis (antiaging, anti wrinkling benefits).
Pig skin was received, scrubbed with Vionex detergent, and dermatomed at a thickness of 0.058 cm and allowed to wash in preliminary medium on a shaker for an hour with three solution changes.
7 mm punches were taken and allowed to sit in final medium overnight. The next day, the medium was refreshed with final medium 1 mL per well. One day later, the plates received fresh final medium,and topically dosed with 5 μl of the active(s) in an ethanol vehicle.
After four days, the biopsies will be removed from the plates, washed with PBS in a concial tube, and frozen at −80° C. for future use.
After thawing, the epidermis was separated and boiled in urea and sample buffer, after which protein quantitation was possible.
16% 15 lane acrylamide gels were loaded ewith the appropriate samples and run until all the proteins were separated based upon their molecular weight.
The gels were transferred onto PVDF membranes at 25 constant Volts for 2.5 hours.
The membranes were blocked with 5% milk in TBST (Tween 0.05%) for one hour at room temperature.
Primary Ab exposure 1:1,000 in 1% milk TBS soln for one hour, followed by six washes with TBST over a period of one hour. […]
The bands in the film were quantified by densitometric scanning, the data from triplicate samples were calculated as % of control and expressed in the following tables as % increase over control (with control as 100%).

Procollagen I = Procollagen I assay; format: cell-based, human; details: fibroblasts, control at 100%
Excerpt: Collagen is a predominant skin protein. Its synthesis decreases with aging or photodamage. The degradation or destruction of collagen […] the tensile strength of the skin causing wrinkles and laxity. Many studies involving human subjects have shown that collagen type I is decreased with increasing severity of photodamage (See Kligman, A., JAMA, (1969), 210, pp. 2377-2380; Lavker, R., J. Inv Derm., (1979), 73, 79-66; Smith J. et al., J. lnv. Derm., (1962), 39, pp. 347-350; and Shuster, S. et al., Br. J. Dermatol., (1975), 93, pp. 639-643); and some correlation in the histology of wrinkles and reduction in collagen levels in the sun-exposed skin has been reported. See Chen, S.; Kiss, I., J. Inv. Derm., (1992), 98. pp. 248-254. Voorhees and colleagues have supported these findings by showing the restoration of collagen type I in photo-damaged human skin by a topical treatment with tretinoin. See Christopher, E., et al., The New Eng. Jou. of Medicine (1993), 329, pp. 530-535. Procollagen I is a precursor of collagen. Increased production of procollagen I in response to a test compound application is a marker of an increased collagen level.
Seed passage 3 (P3) fibroblasts in 6-well tissue culture treated dishes at a density of ˜10,000 cells/well.
Culture cells until ˜70% confluent in high glucose Dulbecco's Modified Eagles Medium (DMEM).
When cells are ˜70% confluent, replace with fresh medium, dose with actives and continue culturing until cells are 100% confluent.
Remove media and store at 4° C.
Dilute 20 μl conditioned (treated) media in 200 μl unconditioned DMEM.
Soak nitrocellulose membrane and 3 sheets of filter paper in 1×TBS (tris buffered saline, pH=7.3).
Set up Bio-Rad slot blot apparatus with filter paper on bottom, nitrocellulose membrane on top. Add 100 μl TBS/well. Vacuum dry.
Remove membrane from apparatus and place in blocking solution (5% milk powder in phosphate buffered saline (PBS)) for 1 hr at room temperature or overnight at 4° C.
Primary antibody-Remove membrane from blocking solution and incubate for 1.5 hours at room temperature or overnight at 4° C. with 1.5 ml rat anti-human procollagen amino-terminal antibody (Chemicon MAB1912) 1:100 in TBS with 0.1% bovine serum albumin (BSA).
Remove membrane, was 3×(10 minutes/wash) in TBS/0.1% tween 20.
Secondary antibody-incubate for 1 hour at room temperature or overnight at 4° C. in 2 ml 1:1000 biotinylated anti-rat peroxidase conjugated antibody (Vector Labs).
Remove membrane from secondary antibody and was 3×(10 minutes/wash) in TBS/0.1% tween 20.
Preincubate 3 ml PBS with 30 μl each of solutions A and B from Vectastain kit for 30 minutes. […]
Scan using a laser densitometer and quantified as % over control (with control at 100%).

| SMILES | % over control ([1]; concentration 10^−4 M) [% over control] | % over control ([1]; concentration 10^−3 M) [% over control] | other results |
| --- | --- | --- | --- |
| CCCCC/C=C/C/C=C/C/C=C/CCCCC(=O)OC/C=C(C)/C=C/C=C(C)/C=C/C1=C(C)CCCC1(C)C [Gamma-retinyl linolenate, Retinyl-cis-6,9,12-Octadecatrienoate] | 882 |  | % over control (Procollagen I; Experiment 1, concentration 10^−5 M, p < 0.05): 225 % over control |
| CCCCCCCCCCCCCCCC(=O)OC/C=C(C)/C=C/C=C(C)/C=C/C1=C(C)CCCC1(C)C [Retinyl Palmitate, reference compound] |  | 444 | % over control (Procollagen I; Experiment 3, concentration 10^−7 M, not significant): 24 % over control |
| CCCCC/C=C/CCCCCCCCCCC(=O)OC/C=C(C)/C=C/C=C(C)/C=C/C1=C(C)CCCC1(C)C [Retinyl cis-12-Octadecenoate, Retinyl-cis12-Octadecenoate] | 993 |  | % over control (Procollagen I; Experiment 2, concentration 10^−6 M, p < 0.05): 28 % over control |
| CCCCCCCCCCC/C=C/CCCCC(=O)OC/C=C(C)/C=C/C=C(C)/C=C/C1=C(C)CCCC1(C)C [Retinyl petroselinate, Retinyl Petroselinate] |  | 522 | % over control (Procollagen I; Experiment 1, concentration 10^−6 M, p < 0.05): 110 % over control |
